From patent US10934274B2, “Quinoline derivatives as TAM RTK inhibitors” (Qurient Co., Ltd., priority 2015, dated 2021)

Experiments:
Mer = target: T1, Mer (Homo sapiens, UniProt Q12866); experiment: LanthaScreen Eu kinase binding assay, Mer; details: Tracer 236
T1 construct: purchased Life Technologies
T1 sequence (Q12866 21-999): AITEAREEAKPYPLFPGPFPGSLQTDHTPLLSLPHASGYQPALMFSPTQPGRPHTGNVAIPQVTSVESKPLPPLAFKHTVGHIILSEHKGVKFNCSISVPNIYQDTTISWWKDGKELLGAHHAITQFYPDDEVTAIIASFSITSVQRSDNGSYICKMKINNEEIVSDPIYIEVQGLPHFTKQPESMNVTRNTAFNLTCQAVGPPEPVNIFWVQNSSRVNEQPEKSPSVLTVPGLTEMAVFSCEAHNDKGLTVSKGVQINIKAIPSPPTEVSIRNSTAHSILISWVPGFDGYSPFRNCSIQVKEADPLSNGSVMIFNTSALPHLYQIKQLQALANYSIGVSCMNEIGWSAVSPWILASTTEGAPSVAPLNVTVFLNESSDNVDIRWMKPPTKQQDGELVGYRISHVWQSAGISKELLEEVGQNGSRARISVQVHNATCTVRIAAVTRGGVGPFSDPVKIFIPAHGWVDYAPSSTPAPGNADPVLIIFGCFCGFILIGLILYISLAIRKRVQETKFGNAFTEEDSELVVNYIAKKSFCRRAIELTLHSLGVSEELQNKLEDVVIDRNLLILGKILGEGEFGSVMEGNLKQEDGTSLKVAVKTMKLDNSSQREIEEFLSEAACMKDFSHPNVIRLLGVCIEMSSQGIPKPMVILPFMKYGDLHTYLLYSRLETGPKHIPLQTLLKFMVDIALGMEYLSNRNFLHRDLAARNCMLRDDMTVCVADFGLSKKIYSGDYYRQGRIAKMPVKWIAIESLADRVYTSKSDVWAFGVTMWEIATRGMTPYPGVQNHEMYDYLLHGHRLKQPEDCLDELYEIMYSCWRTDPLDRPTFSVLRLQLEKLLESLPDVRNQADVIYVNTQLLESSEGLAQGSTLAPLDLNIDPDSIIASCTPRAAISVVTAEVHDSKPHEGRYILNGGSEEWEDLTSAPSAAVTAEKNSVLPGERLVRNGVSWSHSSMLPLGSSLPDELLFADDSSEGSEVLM

Axl = target: T2, Axl (Homo sapiens, UniProt P30530); experiment: LanthaScreen Eu kinase binding assay, Axl; details: Tracer 236
T2 construct: purchased Life Technologies
T2 sequence (P30530 26-894): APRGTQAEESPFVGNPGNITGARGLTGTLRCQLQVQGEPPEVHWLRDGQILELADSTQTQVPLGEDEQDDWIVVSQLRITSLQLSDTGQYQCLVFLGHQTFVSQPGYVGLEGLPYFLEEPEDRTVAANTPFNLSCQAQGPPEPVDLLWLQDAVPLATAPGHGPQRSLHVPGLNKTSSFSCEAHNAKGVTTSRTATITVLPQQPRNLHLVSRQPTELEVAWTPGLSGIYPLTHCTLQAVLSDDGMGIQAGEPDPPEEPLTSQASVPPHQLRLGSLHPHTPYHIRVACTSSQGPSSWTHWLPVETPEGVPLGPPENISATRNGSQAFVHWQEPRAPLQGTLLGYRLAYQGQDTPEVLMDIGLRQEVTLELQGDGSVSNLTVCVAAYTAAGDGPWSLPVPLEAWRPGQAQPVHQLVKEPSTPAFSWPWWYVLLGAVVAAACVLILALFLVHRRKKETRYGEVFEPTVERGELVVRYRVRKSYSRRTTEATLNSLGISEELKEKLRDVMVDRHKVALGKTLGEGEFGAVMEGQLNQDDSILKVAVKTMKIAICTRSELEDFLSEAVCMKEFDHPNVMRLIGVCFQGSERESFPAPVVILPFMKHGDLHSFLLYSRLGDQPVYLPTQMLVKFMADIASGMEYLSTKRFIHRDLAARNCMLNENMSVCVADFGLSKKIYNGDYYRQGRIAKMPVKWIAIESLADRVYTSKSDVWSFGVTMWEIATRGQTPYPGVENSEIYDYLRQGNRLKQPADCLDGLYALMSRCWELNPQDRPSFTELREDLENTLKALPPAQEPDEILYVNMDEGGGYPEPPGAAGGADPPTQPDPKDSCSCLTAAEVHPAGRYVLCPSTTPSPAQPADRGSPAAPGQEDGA

HCC827/ER cells = experiment: WST-1 cell viability assay in erlotinib-resistant cells; details: compound combined with Erlotinib at constant 1:1 ratio, 3 days, FBS 1%
Experimental: The killed cells were discarded and the remaining cells were cultured in a drug-free medium up to 80% confluence. Subsequently, cells were continuously exposed to increasing drug doses of up to 10 μM over a period of 8 months.
HCC827/ER cells were seeded in a 96-well plate with their respective media containing 10% FBS at 5000 cells/well. After seeding, the HCC827/ER cells were incubated for approximately 24 hours. […] The viability of the HCC827/ER cells was determined by adding WST-1 reagent according to Manufacturer's instructions (DoGenbio co., Ltd) and incubating for four hours. The plates were then read using an absorbance of 440 nm on Tecan Microplate reader (Infinite M200 pro, TECAN). The HCC827/ER cells' viability were calculated relative to vehicle (DMSO) control wells.

CCOc1cn(C2CCCC2)nc1C(=O)Nc1ccc(Oc2ccnc3cc(OC)c(OC)cc23)cn1 [Compound 3]
Kd (Mer): < 100 nM | Kd (Axl): < 100 nM

CCOc1cn(-c2ccccn2)nc1C(=O)Nc1ccc(Oc2ccnc3cc(OC)c(OC)cc23)cn1 [Compound 4]
Kd (Mer): < 100 nM | Kd (Axl): < 100 nM

CCOc1cn(-c2cccnn2)nc1C(=O)Nc1ccc(Oc2ccnc3cc(OC)c(OC)cc23)cn1 [Compound 5]
Kd (Mer): < 100 nM | Kd (Axl): < 100 nM

CCOc1cn(C2CCOC2)nc1C(=O)Nc1ccc(Oc2ccnc3cc(OC)c(OC)cc23)cn1 (centres unmarked) [Compound 76]
Kd (Mer): < 100 nM | Kd (Axl): < 100 nM

CCOc1cn(-c2cnccc2C)nc1C(=O)Nc1ccc(Oc2ccnc3cc(OC)c(OC)cc23)cn1 [Compound 79]
Kd (Mer): < 100 nM | Kd (Axl): < 100 nM | Combination effect of compound and erlotinib on inhibition activity in Erlotinib-resistant cell-line (HCC827/ER cells): synergistic effect

CCOc1cn(CCC#N)nc1C(=O)Nc1ccc(Oc2ccnc3cc(OC)c(OC)cc23)cn1 [Compound 80]
Kd (Mer): < 100 nM | Kd (Axl): < 100 nM

CCOc1cn(C(C)CC#N)nc1C(=O)Nc1ccc(Oc2ccnc3cc(OC)c(OC)cc23)cn1 (centres unmarked) [Compound 81]
Kd (Mer): < 100 nM | Kd (Axl): < 100 nM

CCOc1cn(-c2ccc(F)cc2C)nc1C(=O)Nc1ccc(Oc2ccnc3cc(OC)c(OC)cc23)c(Cl)c1 [Compound 82]
Kd (Mer): < 100 nM | Kd (Axl): < 100 nM

CCOc1cn(-c2cccnc2)nc1C(=O)Nc1ccc(Oc2ccnc3cc(OC)c(OC)cc23)cc1F [Compound 85]
Kd (Mer): < 100 nM | Kd (Axl): < 100 nM

CCOc1cn(CCOC(F)F)nc1C(=O)Nc1ccc(Oc2ccnc3cc(OC)c(OC)cc23)cn1 [Compound 86]
Kd (Mer): < 100 nM | Kd (Axl): < 100 nM

CCOc1cn(-c2ccc(Cl)cc2C)nc1C(=O)Nc1ccc(Oc2ccnc3cc(OC)c(OC)cc23)cn1 [Compound 87]
Kd (Mer): < 100 nM | Kd (Axl): < 100 nM

CCOc1cn(-c2ccc(F)cc2)nc1C(=O)Nc1ccc(Oc2ccnc3cc(OC)c(OC)cc23)cn1 [Compound 89]
Kd (Mer): < 100 nM | Kd (Axl): < 100 nM

CCOc1cn(-c2c(C)cc(OC)cc2C)nc1C(=O)Nc1ccc(Oc2ccnc3cc(OC)c(OC)cc23)cn1 [Compound 92]
Kd (Mer): < 100 nM | Kd (Axl): < 100 nM

CCOc1cn(-c2ncc(N)cn2)nc1C(=O)Nc1ccc(Oc2ccnc3cc(OC)c(OC)cc23)cn1 [Compound 93]
Kd (Mer): < 100 nM | Kd (Axl): < 100 nM
